# Results published in US20170217982A1, “Compound isolated from Pseudolysimachion rotundum var. subintegrum, the composition comprising the same for treating allergic disease, inflammatory disease, asthma or chronic obstructive pulmonary disease and the use thereof” (YUNGJIN PHARMACEUTICAL CO., LTD, priority 2014, published 2017).
# Where “and” joins values, the source holds several entries; their conditions need not be identical. Equal values may be shown once.
# Tests used:
# H292 cell = assay: Evaluation of cytotoxicity in H292 cell (CCK-8); type: cell-based, human; conditions: for H292 cell viability (%, mean ± variation): 24 hours, CCK-8
# Description: In order to determine the cytotoxicity of inventive compound, following preliminary test was performed by the method disclosed in the literature (Shiyama et al., Talanta, 1997, 44, 1299-1305; Tominaga et al., Anal. Commun., 1999, 36, 47-50).
# HT1080 (CRL-12012), H292 (CRL-1848) and murine EL4 cells (TIB-39) were purchased from company (American Type Culture Collection).
# HT1080 (CRL-12012) and murine EL4 cells were cultured in DMEM medium (SB30243.01, Dulbecco's modified Eagle's medium; DMEM, HyClone) supplemented with 10% FBS (Fetal Bovine Serum; Gibco) and antibiotic (100 units/ml penicillin+100 units/ml streptomycin). H292 cell was cultured in RPMI medium (SH30027.01, RPMI 1640, Gibco) supplemented with 10% FBS and antibiotic. The cells were cultures under the condition of humidified 5% CO2 atmosphere at 37° C. PMA (P8139, Phorbol 12-myristate 13-acetate) was purchased from the company (Sigma Chemical Co., St. Louis, Mo.) and TNF-α is from the company (300-01A, PeproTech, NJ USA Inc.) to use in the experiment.
# H292 cell line, a human hung mucosal cancer cell line, was suspended in 10% FBS-supplemented RPMI medium in a concentration of 5×10^4 cells/ml, and 100 μl of the suspension was inoculated into 96 well plates to adhere cell to the plate for 12 hours. Various concentrations of test sample (KS 534 compound) were treated therewith and cultured for 24 hours. 10 μL of CCK-8 solution was mixed with 90 μL of the medium and 100 μL of solution was added to each well. After reacting from 30 mins to 4 hours, the absorbance of the solution was determined at 570 nm. The cell viability was calculated according to following Math formulae 1 based on negative control group treated with 0.2% DMSO and the result was shown in Table 2.
# Cell viability (%)=OD 570 nm (test group)/OD 570 nm (negative control group)×100 Math formulae 1
# MUC5AC protein = assay: Inhibition of MUC5AC protein secretion (modified ELISA) in H292 cells; type: cell-based, human; conditions: TNF-alpha 20 ng/ml
# Description: In order to determine the inhibitory effect on the reproduction of MUC5AC protein, following test was performed by the method disclosed in the literature (Sikder, M A. et al., Phytother. Res., 2014, 28, 62-68)
# For the immunoassay on reproduced MUCSAC, 50 μL of collected supernatant in Experimental Example 3 was distributed to 96 well plate and dried in a thermostat at 50[…].
# After washing with 1% BSA added PBS solution, MUCSAC antibody (ab3649, abcam Co.) was added to react together at room temperature for 1 hour and then secondary antibody was added thereto to react together for 1 hour. After re-washing, 3,3′,5,5′-tetramethylbenzidine peroxide solution (54827-17-7, Sigma-aldrich) was added thereto to react together for 20 mins. After stopping the reaction by adding sulfuric acid solution, the absorbance was determined by VERSAmax microplate reader, (SMP500-14915, Molecular Devices, USA) at 450 nm (Sikder, M. A. et al., Phytother. Res., 2014, 28, 62-68; Takeyama, K. et al. Proc. Natl. Acad. Sci. U.S.A., 1999, 96, 3081-3086).
compound,measurement,setting,value
"O=C(CO)O[C@@H]1O[C@@H]2C[C@H]3[C@H](OC(=O)c4ccc(O)c(O)c4)[C@@H](Cl)[C@@](O)(CO2)[C@@H]13 [KS-534, (3R,5S,5aS,6R,7S,8R,8aS)-8-chloro-8a-hydroxy-5-(2-hydroxyacetoxy) hexahydro-1H-3,6-methanocyclopenta[e][1,3]dioxepin-7-yl3,4-dihydroxybenzoate]","H292 cell viability (%, mean ± variation)",H292 cell; 2.5 μm,101.88 ± 3.71%
same,"H292 cell viability (%, mean ± variation)",H292 cell; 5 μm,102.46 ± 3.96%
same,"H292 cell viability (%, mean ± variation)",H292 cell; 10 μm,99.89 ± 4.79%
same,"H292 cell viability (%, mean ± variation)",H292 cell; 20 μm,97.87 ± 2.92%
same,cytotoxicity in H292 cell,H292 cell; at less than 20 μm,did not show cytotoxicity
same,Inhibitory ratio (%) of MUC5AC secretion,MUC5AC protein; 2.5 μm,6.62%
same,MUC5AC secretion (relative % comparing with TNF-alpha treatment group),MUC5AC protein; 2.5 μm,93.38% and 93.38 ± 0.90%
same,Inhibitory ratio (%) of MUC5AC secretion,MUC5AC protein; 5 μm,21.73%
same,MUC5AC secretion (relative % comparing with TNF-alpha treatment group),MUC5AC protein; 5 μm,78.27% and 78.27 ± 2.16%
same,Inhibitory ratio (%) of MUC5AC secretion,MUC5AC protein; 10 μm,35.23%
same,MUC5AC secretion (relative % comparing with TNF-alpha treatment group),MUC5AC protein; 10 μm,64.77% and 64.77 ± 1.56%
